test system: influenza A virus (A/WSN/33 NanoLuc reporter virus) in A549 cells; assay: microbe, parasite or virus in culture; format: cell-based; settings: A549, 24 h, read-out: IC50 values of viral replication inhibition in a cell-based Luciferase Reporter Assay (LRA)

SMILES | IC50 [nM]
CC(C)N1C[C@H](C2c3ccccc3CCc3ccccc32)n2c([S+](C)[O-])nc(=O)c(O)c2C1=O (stereo partly drawn) [Ia-31, (4S)-4-(6,11-Dihydro-5H-dibenzo[2,1-b:1′,2′-e][7]annulen-11-yl)-9-hydroxy-2-isopropyl-6-methylsulfinyl-3,4-dihydropyrazino[1,2-c]pyrimidine-1,8-dione] | 15
CC[S+]([O-])c1nc(=O)c(O)c2n1[C@@H](C(c1ccccc1)c1ccccc1)CN(C(C)C)C2=O (stereo partly drawn) [Ia-32, (4S)-4-Benzhydryl-6-ethylsulfinyl-9-hydroxy-2-isopropyl-3,4-dihydropyrazino[1,2-c]pyrimidine-1,8-dione] | 117
CC(C)N1C[C@H](C(c2ccccc2)c2ccccc2)n2c(NCC(F)(F)F)nc(=O)c(O)c2C1=O [Ia-33, (4S)-4-Benzhydryl-9-hydroxy-2-isopropyl-6-(2,2,2-trifluoroethylamino)-3,4-dihydropyrazino[1,2-c]pyrimidine-1,8-dione] | 273
CC(C)N1C[C@H](C2c3ccccc3CCc3ccccc32)n2c(NCC(F)(F)F)nc(=O)c(O)c2C1=O [Ia-34, (4S)-4-(6,11-Dihydro-5H-dibenzo[2,1-b:1′,2′-e][7]annulen-11-yl)-9-hydroxy-2-isopropyl-6-(2,2,2-trifluoroethylamino)-3,4-dihydropyrazino[1,2-c]pyrimidine-1,8-dione] | 50
CC(C)Nc1nc(=O)c(O)c2n1[C@@H](C(c1ccccc1)c1ccccc1)CN(C(C)C)C2=O [Ia-35, (4S)-4-Benzhydryl-9-hydroxy-2-isopropyl-6-(isopropylamino)-3,4-dihydropyrazino[1,2-c]pyrimidine-1,8-dione] | 324
CC(C)Nc1nc(=O)c(O)c2n1[C@@H](C1c3ccccc3CCc3ccccc31)CN(C(C)C)C2=O [Ia-36, (4S)-4-(6,11-Dihydro-5H-dibenzo[2,1-b:1′,2′-e][7]annulen-11-yl)-9-hydroxy-2-isopropyl-6-(isopropylamino)-3,4-dihydropyrazino[1,2-c]pyrimidine-1,8-dione] | 103
CC(C)N1C[C@H](C(c2ccccc2)c2ccccc2)n2c(NC(C)C(F)(F)F)nc(=O)c(O)c2C1=O (stereo partly drawn) [Ia-37, (4S)-4-Benzhydryl-9-hydroxy-2-isopropyl-6-[(2,2,2-trifluoro-1-methyl-ethyl)amino]-3,4-dihydropyrazino[1,2-c]pyrimidine-1,8-dione] | 516
CC(C)N1C[C@H](C(c2ccccc2)c2ccccc2)n2c(S(C)(=O)=O)nc(=O)c(O)c2C1=O [Ia-38, (4S)-4-Benzhydryl-9-hydroxy-2-isopropyl-6-methylsulfonyl-3,4-dihydropyrazino[1,2-c]pyrimidine-1,8-dione] | 110
CCS(=O)(=O)c1nc(=O)c(O)c2n1[C@@H](C(c1ccccc1)c1ccccc1)CN(C(C)C)C2=O [Ia-39, (4S)-4-Benzhydryl-6-ethylsulfonyl-9-hydroxy-2-isopropyl-3,4-dihydropyrazino[1,2-c]pyrimidine-1,8-dione] | 470
Cc1nc(=O)c(O)c2n1[C@@H](C(c1ccccc1)c1ccccc1)CN(C(C)C)C2=O [Ia-40, (4S)-4-Benzhydryl-9-hydroxy-2-isopropyl-6-methyl-3,4-dihydropyrazino[1,2-c]pyrimidine-1,8-dione] | 119
CCc1nc(=O)c(O)c2n1[C@@H](C(c1ccccc1)c1ccccc1)CN(C(C)C)C2=O [Ia-41, (4S)-4-Benzhydryl-6-ethyl-9-hydroxy-2-isopropyl-3,4-dihydropyrazino[1,2-c]pyrimidine-1,8-dione] | 77
CC(C)N1C[C@H](C(c2ccccc2)c2ccccc2)n2c(-c3ccccc3)nc(=O)c(O)c2C1=O [Ia-42, (4S)-4-benzhydryl-9-hydroxy-2-isopropyl-6-phenyl-3,4-dihydropyrazino[1,2-c]pyrimidine-1,8-dione] | 126
CC(C)N1C[C@H](C(c2ccccc2)c2ccccc2)n2c(-n3ccnc3)nc(=O)c(O)c2C1=O [Ia-43, (4S)-4-Benzhydryl-9-hydroxy-6-imidazol-1-yl-2-isopropyl-3,4-dihydropyrazino[1,2-c]pyrimidine-1,8-dione] | 495
CC(C)N1C[C@H](C(c2ccccc2)c2ccccc2)n2c(-n3cnnc3)nc(=O)c(O)c2C1=O [Ia-44, (4S)-4-Benzhydryl-9-hydroxy-2-isopropyl-6-(1,2,4-triazol-4-yl)-3,4-dihydropyrazino[1,2-c]pyrimidine-1,8-dione] | 130
CC(C)N1C[C@H](C2c3ccccc3CCc3ccccc32)n2c(-n3ccnc3)nc(=O)c(O)c2C1=O [Ia-45, (4S)-4-(6,11-Dihydro-5H-dibenzo[2,1-b:1′,2′-e][7]annulen-11-yl)-9-hydroxy-6-imidazol-1-yl-2-isopropyl-3,4-dihydropyrazino[1,2-c]pyrimidine-1,8-dione] | 62
CC(C)N1C[C@H](C2c3ccccc3CCc3ccccc32)n2c(-n3cnnc3)nc(=O)c(O)c2C1=O [Ia-46] | 55
C=Cc1nc(=O)c(O)c2n1C(C1c3ccccc3CCc3ccccc31)CN(C(C)C)C2=O (stereo not drawn) [Ia-47, 4-(6,11-Dihydro-5H-dibenzo[2,1-b:1′,2′-e][7]annulen-11-yl)-9-hydroxy-2-isopropyl-6-vinyl-3,4-dihydropyrazino[1,2-c]pyrimidine-1,8-dione] | 40
CC(C)N1CC(C2c3ccccc3CCc3ccccc32)n2c(CO)nc(=O)c(O)c2C1=O (stereo not drawn) [Ia-48, 4-(6,11-Dihydro-5H-dibenzo[2,1-b:1′,2′-e][7]annulen-11-yl)-9-hydroxy-6-(hydroxymethyl)-2-isopropyl-3,4-dihydropyrazino[1,2-c]pyrimidine-1,8-dione] | 20
CNc1nc(=O)c(O)c2n1[C@@H](C(c1ccccc1)c1ccccc1)CN(C(C)C)C2=O [Ia-49, (4S)-4-Benzhydryl-9-hydroxy-2-isopropyl-6-(methylamino)-3,4-dihydropyrazino[1,2-c]pyrimidine-1,8-dione] | 880
CNC(=N)Nc1nc(=O)c(O)c2n1[C@@H](C(c1ccccc1)c1ccccc1)CN(C(C)C)C2=O [Ia-50, 1-[(4S)-4-Benzhydryl-9-hydroxy-2-isopropyl-1,8-dioxo-3,4-dihydropyrazino[1,2-c]pyrimidin-6-yl]-3-methyl-guanidine] | 1070
CC(C)N1C[C@H](C(c2ccccc2)c2ccccc2)n2c(C#N)nc(=O)c(O)c2C1=O [Ia-51, (4S)-4-Benzhydryl-9-hydroxy-2-isopropyl-1,8-dioxo-3,4-dihydropyrazino[1,2-c]pyrimidine-6-carbonitrile] | 368
CC(C)N1C[C@H](C(c2ccccc2)c2ccccc2)n2c(C(N)=O)nc(=O)c(O)c2C1=O [Ia-52, (4S)-4-Benzhydryl-9-hydroxy-2-isopropyl-1,8-dioxo-3,4-dihydropyrazino[1,2-c]pyrimidine-6-carboxamide] | 93
CC(C)N1C[C@H](C(c2ccccc2)c2ccccc2)n2c(-c3nnn[nH]3)nc(=O)c(O)c2C1=O [Ia-53, (4S)-4-Benzhydryl-9-hydroxy-2-isopropyl-6-(1H-tetrazol-5-yl)-3,4-dihydropyrazino[1,2-c]pyrimidine-1,8-dione] | 20200
CC(C)N1C[C@H](C(c2ccccc2)c2ccccc2)n2c(CN)nc(=O)c(O)c2C1=O [Ia-54, (4S)-6-(Aminomethyl)-4-benzhydryl-9-hydroxy-2-isopropyl-3,4-dihydropyrazino[1,2-c]pyrimidine-1,8-dione] | 931
